Measured values taken from patent US9993459B2, “Selective HDAC6 inhibitors and uses thereof” (Universiteit Gent, priority 2015, dated 2018).
“And” between values parts separate entries of the source, which are not always exact repeats. Identical values can stand only once.

Columns and labels:
[1] = system: acetylation of α-tubulin in Neuro-2a cells; test: Acetylation level of α-tubulin in Neuro-2a cells (Western blot); assay type: cell-based, Mouse; settings: for normalized ratio Acetyl α-Tubulin/α-Tubulin against Tubastatin A, Average: Average of N = 1 to 4; for effect on the acetylation level of α-tubulin compared with Tubastatin A: Neuro-2a cells, in words
Method: FIG. 1: Potency of inhibiting HDAC6 by compounds 7a, 7b and 13a in Neuro-2a cells. A. Cells were treated overnight with different concentrations of the HDAC6 inhibitors and blotted of the acetylation of α-tubulin.
Mouse neuroblastoma (Neuro-2a) cells were grown in a 1:1 mix of D-MEM (Dulbecco's Modified Eagle Medium) and F12 medium supplemented with glutamax (Invitrogen), 100 μg/ml streptomycin, 100 U/ml penicillin (Invitrogen), 10% fetal calf serum (Greiner Bio-one), 1% non-essential amino acids (Invitrogen) and 1.6% NaHCO3 (Invitrogen) at 37° C. and 7.5% CO2. To split the cells, cells were washed with Versene (Invitrogen) and dissociated with 0.05% Trypsine-EDTA (Invitrogen).
For sodium dodecyl sulfate-polyacrylamide gel electrophoresis (SDS-PAGE) analysis, transfected cells were collected using the EpiQuik Total Histone Extraction Kit (EpiGentek) according to manufacturer's instructions. Protein concentrations were determined using microBCA kit (Thermo Fisher Scientific Inc., Pittsburgh, Pa., USA) according to manufacturer's instructions. Before resolving the samples on a 12% SDS-PAGE gel, samples containing equal amounts of protein were supplemented with reducing sample buffer (Thermo Scientific) and boiled at 95° C. for 5 min. After electrophoresis, the proteins were transferred to a polyvinylidene difluoride (PVDF) membrane (Millipore Corp., Bedford, Mass., USA). The non-specific binding was blocked by incubation of the membrane in 5% bovine serum albumin (BSA), diluted in Tris Buffered Saline Tween (TBST, 50 mM TRIS, 150 mM NaCl, 0.1% Tween-20 (Applichem, Darmstadt, Duitsland) for 1 h at room temperature followed by incubation with primary antibodies overnight. The antibodies, diluted in TBS-T, were directed against α-tubulin (1/5000, T6199, Sigma-Aldrich), and acetylated α-tubulin (1/5000, T6793 monoclonal, Sigma-Aldrich). The secondary antibodies, coupled to alkaline phosphatase (anti-mouse or anti-rabbit, 1/5000, Sigma-Aldrich) were used. Blots were visualised by adding the ECF substrate (Enhanced Chemical Fluorescence, GE Healthcare, Uppsala, Sweden) and imaged with the ImageQuant_LAS 4000. A mild reblotting buffer (Millipore) was applied to strip the blots. ImageQuant TL version 7.0-software was used to quantify the blots.
Neuro-2a cells were treated overnight with different concentrations of the HDAC6 inhibitors and the effect on the acetylation level of α-tubulin was determined using Western blots (FIG. 1).

HDAC1 = HDAC1 (Homo sapiens, UniProt Q13547); test: In vitro HDAC isozyme selectivity screen: HDAC1; assay type: biochemical; settings: for IC50: Table 2
Sequence of HDAC1 (Q13547 whole entry, species assumed): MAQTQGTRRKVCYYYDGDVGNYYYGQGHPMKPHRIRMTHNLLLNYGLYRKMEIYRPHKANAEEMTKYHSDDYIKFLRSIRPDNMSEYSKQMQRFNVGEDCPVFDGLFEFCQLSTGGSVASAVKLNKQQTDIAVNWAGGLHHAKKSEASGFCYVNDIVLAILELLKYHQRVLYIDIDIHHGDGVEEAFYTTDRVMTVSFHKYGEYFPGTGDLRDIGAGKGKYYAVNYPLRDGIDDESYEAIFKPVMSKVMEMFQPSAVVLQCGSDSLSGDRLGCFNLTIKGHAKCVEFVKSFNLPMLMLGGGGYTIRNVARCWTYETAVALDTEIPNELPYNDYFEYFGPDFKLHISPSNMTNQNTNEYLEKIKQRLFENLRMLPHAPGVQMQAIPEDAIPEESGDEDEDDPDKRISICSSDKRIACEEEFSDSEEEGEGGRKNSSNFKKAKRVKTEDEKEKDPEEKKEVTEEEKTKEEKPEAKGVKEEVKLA

HDAC10 = biological target: T1, HDAC10 (Homo sapiens, UniProt Q969S8); test: In vitro HDAC isozyme selectivity screen: HDAC10; assay type: biochemical; settings: Table 2
T1 sequence (Q969S8 1-669): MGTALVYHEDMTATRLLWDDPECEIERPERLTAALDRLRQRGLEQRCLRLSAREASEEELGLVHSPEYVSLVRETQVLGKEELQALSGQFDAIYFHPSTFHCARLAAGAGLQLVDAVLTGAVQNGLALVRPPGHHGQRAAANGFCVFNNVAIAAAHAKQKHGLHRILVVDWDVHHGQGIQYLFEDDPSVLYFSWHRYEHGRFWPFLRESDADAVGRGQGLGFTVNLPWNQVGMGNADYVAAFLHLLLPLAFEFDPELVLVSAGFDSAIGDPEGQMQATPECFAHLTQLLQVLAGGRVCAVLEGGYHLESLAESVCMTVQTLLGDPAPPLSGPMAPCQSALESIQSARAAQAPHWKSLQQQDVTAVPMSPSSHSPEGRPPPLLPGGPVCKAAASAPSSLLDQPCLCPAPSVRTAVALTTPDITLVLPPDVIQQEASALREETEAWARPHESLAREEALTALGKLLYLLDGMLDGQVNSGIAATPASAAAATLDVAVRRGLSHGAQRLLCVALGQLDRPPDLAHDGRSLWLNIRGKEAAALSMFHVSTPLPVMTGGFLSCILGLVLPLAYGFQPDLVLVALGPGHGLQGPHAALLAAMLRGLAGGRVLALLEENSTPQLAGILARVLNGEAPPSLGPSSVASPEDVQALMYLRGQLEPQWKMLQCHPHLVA

HDAC2 = HDAC2 (Homo sapiens, UniProt Q92769); test: In vitro HDAC isozyme selectivity screen: HDAC2; assay type: biochemical; settings: for IC50: Table 2
Sequence of HDAC2 (Q92769 whole entry, species assumed): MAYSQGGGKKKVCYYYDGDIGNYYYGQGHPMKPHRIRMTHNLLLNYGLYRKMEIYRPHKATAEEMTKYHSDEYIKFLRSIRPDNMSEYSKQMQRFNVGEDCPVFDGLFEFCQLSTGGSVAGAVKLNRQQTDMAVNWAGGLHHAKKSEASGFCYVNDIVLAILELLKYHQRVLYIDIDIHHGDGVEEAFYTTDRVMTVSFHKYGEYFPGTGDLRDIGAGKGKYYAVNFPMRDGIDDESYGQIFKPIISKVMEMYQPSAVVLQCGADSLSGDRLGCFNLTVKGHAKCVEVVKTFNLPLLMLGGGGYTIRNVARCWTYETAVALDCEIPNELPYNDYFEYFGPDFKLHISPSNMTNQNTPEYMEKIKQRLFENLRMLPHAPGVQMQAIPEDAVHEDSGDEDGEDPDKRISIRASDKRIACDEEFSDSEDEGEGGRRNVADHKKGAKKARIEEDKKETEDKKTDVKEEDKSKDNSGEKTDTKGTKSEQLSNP

SMILES | normalized ratio Acetyl α-Tubulin/α-Tubulin against Tubastatin A, Average ([1]; 10 nM, overnight, Neuro-2a) | normalized ratio Acetyl α-Tubulin/α-Tubulin against Tubastatin A, Average ([1]; 50 nM, overnight, Neuro-2a) | normalized ratio Acetyl α-Tubulin/α-Tubulin against Tubastatin A, Average ([1]; 100 nM, overnight, Neuro-2a) | normalized ratio Acetyl α-Tubulin/α-Tubulin against Tubastatin A, Average ([1]; 500 nM, overnight, Neuro-2a) | normalized ratio Acetyl α-Tubulin/α-Tubulin against Tubastatin A, Average ([1]; 1 μM, overnight, Neuro-2a) | IC50 (HDAC1) [µM] | IC50 (HDAC10) [µM] | IC50 (HDAC2) [µM] | normalized ratio Acetyl α-Tubulin/α-Tubulin against Tubastatin A ([1]; 1 μM, overnight, Neuro-2a, single experiments N = 1 to 4, Tub A 1 μM = 100) | effect on the acetylation level of α-tubulin compared with Tubastatin A [1] | effect at 100 μM, HDAC1 (HDAC1; 100 μM) | effect at 100 μM, HDAC2 (HDAC2; 100 μM)
O=C(NO)c1ccc(NCc2csc3cc(Br)ccc23)cc1 [Compound 13a, 6-bromo-3-[(4-hydroxycarbamoylphenyl)aminomethyl]-benzothiophene] | 8.35 | 13.93 | 23.21 | 69.97 | 80.44 | 3.4 | 7.6 | 20 | – | – | – | –
O=C(NO)c1ccc(NCc2csc3ccc(Br)cc23)cc1 [Compound 7b, 5-bromo-3-[(4-hydroxycarbamoylphenyl)aminomethyl]-benzothiophene] | 8.35 | 15.75 | 27.24 | 63.70 | 83.19 | – | 33 | > 100 | 99.53 and 83.22 and 69.97 and 80.03 | same effect on the acetylation level of α-tubulin as Tubastatin A | less than 50% | less than 50%
O=C(NO)c1ccc(NCc2csc3ccccc23)cc1 [Compound 7a, 3-[(4-hydroxycarbamoylphenyl)aminomethyl]benzothiophene] | 24.02 | 46.70 | 67.40 | 139.23 | 90.45 | 7.5 | 9.9 | 30 | – | same effect on the acetylation level of α-tubulin as Tubastatin A | – | –
